The values that follow are results of earlier work, collected in US7815936B2, “Use of granular materials based on pyrogenically produced silicon dioxide in pharmaceutical compositions” (Evonik Degussa GmbH, priority 2001, dated 2010).

For this data set the following is noted: pure active constituent in water, reached only after shaking over several days.

With `C#C[C@]1(O)CC[C@H]2[C@@H]3CCc4cc(O)ccc4[C@H]3CC[C@@]21C` [ethinyl oestradiol], the saturation equilibrium value is on record as 1.1 mg/100 ml.
